Patent US5580870A, “Quinazoline derivatives” (Zeneca Limited, priority 1992, dated 1996)
Read-outs that look alike come from different tables or passages of the source.

Experiments:
liver hepatocyte growth = test: Test (c): in vivo inhibition of TGFα-stimulated liver hepatocyte growth in male rats (BrdU uptake); set-up: species or system rat; conditions: for ED50: Rattus norvegicus, Hepatocyte, read-out: ED50 in Test (c), inhibition of liver hepatocyte proliferation
Experimental: (c) An in vivo assay in a group of male rats which determines the ability of a test compound (usually administered orally as a ball-milled suspension in 0.5% polysorbate) to inhibit the stimulation of liver hepatocyte growth caused by the administration of the growth factor TGFα (400 μg/kg subcutaneously, usually dosed twice, 3 and 7 hours respectively after the administration of the test compound).
Cell-growth in the control and test animals is determined as follows:
On the morning of the day after the dosing of the test compound (or 0.5% polysorbate in the control group), the animals are dosed with bromodeoxyuridine (BrdU; 100 mg/kg intraperitoneally). The animals are killed four hours later and the livers are excised. […] Further tests were carried out using a range of doses of the test compounds to allow the calculation of an approximate ED50 value for the inhibition of liver hepatocyte proliferation as determined by inhibition of the uptake of BrdU.

KB cells = test: Test (b): in vitro inhibition of growth of human naso-pharyngeal cancer cell line KB (EGF, MTT); type: cell-based; conditions: 72 h, read-out: IC50 in Test (b), inhibition of KB cell growth
Experimental: (b) An in vitro assay which determines the ability of a test compound to inhibit the growth of the human naso-pharyngeal cancer cell line KB.
KB cells were seeded into wells at a density of 1×10^4 -1.5×10^4 cells per well and grown for 24 hours in DMEM supplemented with 5% FCS (charcoal-stripped). Cell growth was determined after incubation for 3 days by the extent of metabolism of MTT tetrazolium dye to furnish a bluish colour. Cell growth was then determined in the presence of EGF (10 ng/ml) or in the presence of EGF (10 ng/ml) and a test compound at a range of concentrations. An IC50 value could then be calculated.

receptor tyrosine kinase = molecular target: T1, receptor tyrosine kinase (Homo sapiens, UniProt P00533); test: Test (a): in vitro receptor tyrosine kinase inhibition (enzyme from A-431 cells, 32P-ATP/peptide phosphorylation, with EGF); type: biochemical
T1 construct: The supernatant, containing solubilised receptor tyrosine kinase, was stored in liquid nitrogen; endogenous in cells; host or cells: A-431 cells (human vulval carcinoma), solubilised membrane fraction
T1 sequence (P00533 25-1210): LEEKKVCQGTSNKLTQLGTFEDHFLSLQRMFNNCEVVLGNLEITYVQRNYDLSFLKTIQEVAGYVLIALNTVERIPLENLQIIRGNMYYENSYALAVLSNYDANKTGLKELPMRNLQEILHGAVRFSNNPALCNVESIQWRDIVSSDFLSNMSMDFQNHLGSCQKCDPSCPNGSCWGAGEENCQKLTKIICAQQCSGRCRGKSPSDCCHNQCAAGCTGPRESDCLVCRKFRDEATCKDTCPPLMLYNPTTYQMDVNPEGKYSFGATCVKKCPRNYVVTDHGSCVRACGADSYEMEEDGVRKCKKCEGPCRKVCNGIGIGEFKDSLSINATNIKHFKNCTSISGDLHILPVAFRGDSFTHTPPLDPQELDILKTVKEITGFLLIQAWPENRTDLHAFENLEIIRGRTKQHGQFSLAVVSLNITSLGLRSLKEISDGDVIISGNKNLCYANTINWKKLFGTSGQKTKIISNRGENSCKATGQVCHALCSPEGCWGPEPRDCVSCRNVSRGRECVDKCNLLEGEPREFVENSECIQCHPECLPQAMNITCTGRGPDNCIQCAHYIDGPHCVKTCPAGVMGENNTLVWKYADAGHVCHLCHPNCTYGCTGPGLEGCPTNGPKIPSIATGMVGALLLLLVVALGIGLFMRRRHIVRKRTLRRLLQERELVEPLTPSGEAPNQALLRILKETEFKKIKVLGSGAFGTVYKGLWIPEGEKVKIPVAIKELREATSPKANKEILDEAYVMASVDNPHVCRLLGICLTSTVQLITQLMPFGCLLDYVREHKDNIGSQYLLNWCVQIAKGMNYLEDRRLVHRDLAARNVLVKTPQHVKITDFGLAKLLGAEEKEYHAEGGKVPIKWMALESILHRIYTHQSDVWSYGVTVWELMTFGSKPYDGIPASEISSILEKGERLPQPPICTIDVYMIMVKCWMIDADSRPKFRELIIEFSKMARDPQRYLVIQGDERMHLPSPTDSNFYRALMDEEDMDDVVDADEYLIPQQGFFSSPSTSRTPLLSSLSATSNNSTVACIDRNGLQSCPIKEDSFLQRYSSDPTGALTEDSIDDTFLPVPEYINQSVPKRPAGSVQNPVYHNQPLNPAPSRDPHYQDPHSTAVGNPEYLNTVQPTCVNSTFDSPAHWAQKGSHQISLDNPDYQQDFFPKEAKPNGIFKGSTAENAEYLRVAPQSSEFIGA
T1 sequence (P01133 971-1023 partner limits assumed): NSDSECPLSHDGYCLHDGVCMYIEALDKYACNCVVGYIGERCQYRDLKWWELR
Experimental: A-431 cells were grown to confluence using Dulbecco's modified Eagle's medium (DMEM) containing 5% fetal calf serum (FCS). The obtained cells were homogenised in a hypotonic borate/EDTA buffer at pH 10.1. The homogenate was centrifuged at 400 g for 10 minutes at 0°-4° C. The supernatant was centrifuged at 25,000 g for 30 minutes at 0°-4° C. The pelleted material was suspended in 30 mM Hepes buffer at pH 7.4 containing 5% glycerol, 4 mM benzamidine and 1% Triton X-100, stirred for 1 hour at 0°-4° C., and recentrifuged at 100,000 g for 1 hour at 0°-4° C. The supernatant, containing solubilised receptor tyrosine kinase, was stored in liquid nitrogen.
For test purposes 40 μl of the enzyme solution so obtained was added to a mixture of 400 μl of a mixture of 150 mM Hepes buffer at pH 7.4, 500 μM sodium orthovanadate, 0.1% Triton X-100, 10% glycerol, 200 μl water, 80 μl of 25 mM DTT and 80 μl of a mixture of 12.5 mM manganese chloride, 125 mM magnesium chloride and distilled water. There was thus obtained the test enzyme solution. […]
The test compound/EGF mixture solution (5 μl) was added to the test enzyme solution (10 μl) and the mixture was incubated at 0°-4° C. for 30 minutes. […] Radioactivity present in the filter paper was measured using a liquid scintillation counter (Sequence A). […]
Receptor tyrosine kinase inhibition was calculated as follows: [formula]

[1] = test system: human mammary carcinoma which expresses epidermal growth factor (EGF) receptor tyrosine kinase; conditions: athymic nude mice; Toi et al., 1990; cited from earlier work
[2] = test system: carcinoma which does not express EGF receptor tyrosine kinase; conditions: Toi et al., 1990; cited from earlier work
[3] = male rats, usually oral, TGFα 400 μg/kg subcutaneously, BrdU uptake

IC50 (KB cells; EGF (10 ng/ml), 3 days, MTT) | IC50 (receptor tyrosine kinase) | Molecule | ED50 (liver hepatocyte growth; [3]) | further results
 |  | COc1cc2ncnc(Nc3ccc4c(c3)CCC4)c2cc1OC [6,7-dimethoxy-4-(5-indanylamino)quinazoline] |  | ED50 (liver hepatocyte growth; po): 1 to 5 mg/kg; IC50 (KB cells): 650 nM
400 nM | 1 nM | COc1cc2ncnc(Nc3ccc4[nH]ccc4c3)c2cc1OC [6,7-dimethoxy-4-(5-indolylamino)quinazoline] | 1 to 5 mg/kg | 
1800 nM | 60 nM | COc1cc2ncnc(Nc3cccc4ncccc34)c2cc1OC [6,7-dimethoxy-4-(5-quinolylamino)quinazoline] | ~2 mg/kg | 
 |  | O=CN/C=C/c1cc(O)ccc1O [erbstatin] |  | effect on growth of transplanted human mammary carcinoma expressing EGF receptor tyrosine kinase [1]: specifically attenuates the growth; effect on growth of another carcinoma which does not express EGF receptor tyrosine kinase [2]: without effect
 |  | TGFα: the growth factor TGFα [reference compound] |  | stimulation of liver hepatocyte growth (liver hepatocyte growth; control group of rats, TGFα 400 μg/kg subcutaneously, on average): 5 fold
